Blank lines part the entries; values can stand above or below the compound they belong to. Calls of active or inactive are those of the source. No cut-off for these calls is given here.
Experiments:
[1] = system: MV4-11; assay: cells; conditions: Homo sapiens, MV4-11, 72 h
[2] = physchem; conditions: potassium phosphate buffer with reduced glutathione
[3] = Toxicity in zebrafish embryo assessed as mortality at 10 uM measured 120 hpf by fluorescence microscopy; set-up: species or system Danio rerio; conditions: in vivo
[4] = system: T1, Receptor-type tyrosine-protein kinase FLT3 (Homo sapiens), P36888 [D835Y]; assay: Covalent binding affinity to recombinant human FLT3 D835Y mutant (571 to 993 residues) expressed in baculovirus expression system at 100 uM by Western blot analysis
T1 sequence (whole entry): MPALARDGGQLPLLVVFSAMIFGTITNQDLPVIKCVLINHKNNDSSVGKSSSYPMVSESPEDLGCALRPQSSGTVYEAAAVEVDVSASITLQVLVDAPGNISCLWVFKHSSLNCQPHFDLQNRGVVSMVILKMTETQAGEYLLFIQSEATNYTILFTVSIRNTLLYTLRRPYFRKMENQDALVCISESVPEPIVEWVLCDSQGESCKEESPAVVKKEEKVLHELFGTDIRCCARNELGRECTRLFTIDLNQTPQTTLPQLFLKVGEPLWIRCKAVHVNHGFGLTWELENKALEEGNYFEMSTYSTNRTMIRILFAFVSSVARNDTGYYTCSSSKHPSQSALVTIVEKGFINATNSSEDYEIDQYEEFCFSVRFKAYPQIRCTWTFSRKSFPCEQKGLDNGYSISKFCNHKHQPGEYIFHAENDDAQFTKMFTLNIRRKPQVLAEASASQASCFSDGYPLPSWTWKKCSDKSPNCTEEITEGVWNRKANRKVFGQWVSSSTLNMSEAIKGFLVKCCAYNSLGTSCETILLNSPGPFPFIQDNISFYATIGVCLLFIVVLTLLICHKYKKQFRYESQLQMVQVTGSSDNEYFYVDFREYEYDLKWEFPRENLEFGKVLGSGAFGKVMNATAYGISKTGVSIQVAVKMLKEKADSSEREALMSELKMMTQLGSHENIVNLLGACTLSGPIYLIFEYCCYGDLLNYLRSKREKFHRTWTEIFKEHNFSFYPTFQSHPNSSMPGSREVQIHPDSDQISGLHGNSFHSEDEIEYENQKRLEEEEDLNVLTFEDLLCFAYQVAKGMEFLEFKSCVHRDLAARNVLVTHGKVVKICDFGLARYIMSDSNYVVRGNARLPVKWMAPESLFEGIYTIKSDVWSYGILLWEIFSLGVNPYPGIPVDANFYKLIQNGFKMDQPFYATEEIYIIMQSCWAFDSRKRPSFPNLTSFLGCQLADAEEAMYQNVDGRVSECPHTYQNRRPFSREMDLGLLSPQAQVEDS

[5] = system: T1, Receptor-type tyrosine-protein kinase FLT3 (Homo sapiens), P36888 [D835Y]; assay: Irreversible inhibition of recombinant human FLT3 D835Y mutant (571 to 993 residues) expressed in baculovirus expression system at 1 uM preincubated for 5 to 30 mins followed by myelobasic protein addition measured after 120 mins using BODIPY-tagged compounds in presence of ATP by ADP-Glo assay relative to control
[6] = system: T1, Receptor-type tyrosine-protein kinase FLT3 (Homo sapiens), P36888 [D835Y]; assay: Covalent binding affinity to recombinant human FLT3 D835Y mutant (571 to 993 residues) expressed in baculovirus expression system at 50 uM by Western blot analysis
[7] = Drug uptake in zebrafish embryo gastrointestine at 10 uM starting 1 dpf and measured at 4 dpf by fluorescence microscopy; assay type: ADME, Danio rerio, Gastrointestinal tract; conditions: in vivo
[8] = system: T1, Receptor-type tyrosine-protein kinase FLT3 (Homo sapiens), P36888 [D835Y]; assay: Inhibition of covalent binding of (Z)-N-(2-(2-(4-(2,8-Diethyl-5,5-difluoro-1,3,7,9-tetramethyl-5H-4lambda4,5lambda4-dipyrrolo[1,2-c:2',1'-f ][1,3,2]diazaborinin-10-yl)phenoxy)-acetamido)ethyl)-2,4-dimethyl-5-((2-oxo-5-(vinylsulfon-amido)-indolin-3-ylidene)methyl)-1H-pyrrole-3-carboxamide to recombinant human FLT3 D835Y mutant (571 to 993 residues) expressed in baculovirus expression system at […] by Western blot analysis
[9] = system: Jurkat; assay: cells; conditions: Homo sapiens, 72 h
[10] = system: THP-1; assay: cells; conditions: Homo sapiens, THP-1, 72 h
[11] = system: MOLM-14; assay: cells; conditions: Homo sapiens, MOLM-14, 72 h
[12] = molecular target: Glycogen synthase kinase-3 alpha (Homo sapiens) (UniProt P49840); assay: Inhibition of human N-terminal His-tagged GSK3alpha expressed in baculovirus expression system at 1 uM relative to control
Chain of Glycogen synthase kinase-3 alpha (Homo sapiens) (P49840 2-483 limits assumed): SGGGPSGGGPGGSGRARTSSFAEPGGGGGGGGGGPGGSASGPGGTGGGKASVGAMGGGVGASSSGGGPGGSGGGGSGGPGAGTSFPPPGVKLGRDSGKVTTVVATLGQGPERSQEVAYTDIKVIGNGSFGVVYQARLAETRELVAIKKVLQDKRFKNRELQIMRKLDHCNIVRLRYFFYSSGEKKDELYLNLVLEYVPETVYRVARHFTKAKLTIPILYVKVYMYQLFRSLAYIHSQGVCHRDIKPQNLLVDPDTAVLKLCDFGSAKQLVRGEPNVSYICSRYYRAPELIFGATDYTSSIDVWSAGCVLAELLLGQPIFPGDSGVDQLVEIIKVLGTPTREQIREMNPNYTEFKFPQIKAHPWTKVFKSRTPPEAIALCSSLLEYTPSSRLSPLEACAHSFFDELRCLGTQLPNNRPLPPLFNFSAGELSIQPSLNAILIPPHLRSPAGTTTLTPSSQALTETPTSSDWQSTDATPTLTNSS

[13] = molecular target: Glycogen synthase kinase-3 beta (Homo sapiens) (UniProt P49841); assay: Inhibition of human N-terminal His-tagged GSK3beta expressed in baculovirus expression system at 1 uM relative to control
Chain of Glycogen synthase kinase-3 beta (Homo sapiens) (P49841 whole entry, looked up): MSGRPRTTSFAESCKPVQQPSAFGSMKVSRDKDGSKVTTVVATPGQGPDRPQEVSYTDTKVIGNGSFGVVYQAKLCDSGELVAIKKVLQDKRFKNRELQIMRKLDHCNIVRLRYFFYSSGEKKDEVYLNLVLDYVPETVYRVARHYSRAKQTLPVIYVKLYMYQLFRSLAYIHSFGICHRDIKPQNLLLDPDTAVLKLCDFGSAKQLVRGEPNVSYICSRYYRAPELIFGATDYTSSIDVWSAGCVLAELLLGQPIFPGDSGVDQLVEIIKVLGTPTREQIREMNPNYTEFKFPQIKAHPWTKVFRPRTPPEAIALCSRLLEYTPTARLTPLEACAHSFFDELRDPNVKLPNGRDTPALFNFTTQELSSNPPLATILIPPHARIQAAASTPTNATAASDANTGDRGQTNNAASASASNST

[14] = system: MV4-11; assay: Cytotoxicity in human MV4-11 cells assessed as inhibition of cellular viability at 0.5 to 5000 nM incubated for 2 to 8 hrs followed by compound washout by CellTiter-Glo luminescent assay; assay type: functional, cell-based

IC50 [1]: 129 nM
SMILES: CCS(=O)(=O)Nc1ccc(Nc2nccc(Nc3cc(C4CC4)[nH]n3)n2)cc1

IC50 [1]: > 1 nM
SMILES: CC(=O)Nc1cccc(Nc2nccc(Nc3cc(C4CC4)[nH]n3)n2)c1

SMILES: O=C(CF)Nc1ccc2c(c1)/C(=C/c1ccc[nH]1)C(=O)N2
half-life at 10 µM [2]: > 24 h
Activity [3]: Toxic
IC50 [1]: 845 nM

IC50 [1]: 521 nM
SMILES: C=CC(=O)Nc1ccc(Nc2nccc(Nc3cc(C4CC4)[nH]n3)n2)cc1

IC50 [1]: > 1 nM
SMILES: O=C1Nc2ccccc2/C1=C/c1ccccc1

IC50 [1]: 787 nM
SMILES: C=CC(=O)Nc1cccc(Nc2nccc(Nc3cc(C4CC4)[nH]n3)n2)c1

SMILES: CC(=O)Nc1ccc2c(c1)/C(=C/c1[nH]c(C)c(C(=O)NCCNC(=O)CCc3ccc4n3[B-](F)(F)[N+]3=C(C)C=C(C)C3=C4)c1C)C(=O)N2
Activity [4]: inactive
inhibition [5]: 23%
Activity [6]: inactive

IC50 [1]: > 1 nM
SMILES: CCC(=O)Nc1cccc(Nc2nccc(Nc3cc(C4CC4)[nH]n3)n2)c1

SMILES: CC1=CC(C)=[N+]2C1=Cc1ccc(CCC(=O)NCCNC(=O)c3c(C)[nH]c(/C=C4\C(=O)Nc5ccc(NC(=O)CCl)cc54)c3C)n1[B-]2(F)F
Drug uptake [7]: Active
inhibition [5]: 55%
Activity [6]: Active

IC50 [1]: > 1000 nM
SMILES: CCN(CC)CCNC(=O)c1c(C)[nH]c(/C=C2\C(=O)Nc3ccc(NC(C)=O)cc32)c1C

IC50 [1]: > 1 nM
SMILES: C#CC(=O)Nc1ccc(Nc2nccc(Nc3cc(C4CC4)[nH]n3)n2)cc1

IC50 [1]: 67 nM
SMILES: C=CS(=O)(=O)Nc1ccc2c(c1)/C(=C/c1ccc[nH]1)C(=O)N2

IC50 [1]: > 1 nM
SMILES: CC(=O)Nc1ccc(Nc2nccc(Nc3cc(C4CC4)[nH]n3)n2)cc1

SMILES: O=C(O)Cc1c[nH]c2ccccc12
inhibition [8]: Active

IC50 [1]: 643 nM
SMILES: CCN(CC)CCNC(=O)c1c(C)[nH]c(/C=C2\C(=O)Nc3ccc(NS(=O)(=O)CC)cc32)c1C

IC50 [1]: > 1 nM
SMILES: C#CC(=O)Nc1cccc(Nc2nccc(Nc3cc(C4CC4)[nH]n3)n2)c1

SMILES: COc1cc(O)c2c(c1)[C@H]1O[C@@H]1C[C@H](O)[C@H](O)C(=O)/C=C\C[C@H](C)OC2=O [HYPOTHEMYCIN]
Activity [3]: Toxic
IC50 [9]: > 1000 nM
IC50 [1]: 15 nM
IC50 [10]: > 1000 nM

SMILES: CCN(CC)CCNC(=O)c1c(C)[nH]c(/C=C2\C(=O)Nc3ccc(NC(=O)CCl)cc32)c1C
half-life at 10 µM [2]: 3.63 h
Activity [3]: Non-Toxic
IC50 [9]: > 1000 nM
IC50 [1]: 21 nM
IC50 [11]: 26.4 nM
IC50 [10]: > 1000 nM

IC50 [1]: 175 nM
SMILES: O=C(CCl)Nc1cccc(Nc2nccc(Nc3cc(C4CC4)[nH]n3)n2)c1

SMILES: c1ccc(Nc2nccc(Nc3cc(C4CC4)[nH]n3)n2)cc1
Activity [3]: Toxic
inhibition [12]: 74%
IC50 [1]: 230 nM
inhibition [13]: 76%

IC50 [1]: 489 nM
SMILES: CCS(=O)(=O)Nc1cccc(Nc2nccc(Nc3cc(C4CC4)[nH]n3)n2)c1

IC50 [1]: > 1 nM
SMILES: c1ccc(-c2cnc3ccccn23)cc1

IC50 [9]: 44 nM
IC50 [1]: 2.3 nM
IC50 [10]: 172 nM
SMILES: C=CS(=O)(=O)Nc1cccc(Nc2nccc(Nc3cc(C4CC4)[nH]n3)n2)c1

SMILES: O=C(CBr)Nc1ccc2c(c1)/C(=C/c1ccc[nH]1)C(=O)N2
Activity [3]: Toxic
IC50 [1]: 653 nM

SMILES: CCC1=C(C)C2=C(c3ccc(OCC(=O)NCCNC(=O)c4c(C)[nH]c(/C=C5\C(=O)Nc6ccc(NC(=O)C(F)(F)F)cc65)c4C)cc3)c3c(C)c(CC)c(C)n3[B-](F)(F)[N+]2=C1C
Activity [4]: 18%
inhibition [5]: 34%
inhibition [6]: 7%

IC50 [1]: 141 nM
SMILES: O=C(CCl)Nc1ccc(Nc2nccc(Nc3cc(C4CC4)[nH]n3)n2)cc1

IC50 [1]: > 1 nM
SMILES: c1ccc(-c2cnc3[nH]cc(-c4ccccc4)c3c2)cc1

IC50 [1]: 709 nM
SMILES: C#CC(=O)Nc1ccc2c(c1)/C(=C/c1ccc[nH]1)C(=O)N2

SMILES: CC1(COc2ccc3c(c2)ncn3-c2ccc3cccc(N4CCC(N)CC4)c3n2)COC1 [CRENOLANIB]
Activity [3]: Toxic
Activity [14]: Active
IC50 [9]: > 1000 nM
IC50 [1]: 12 nM
IC50 [10]: > 1000 nM

IC50 [1]: > 1 nM
SMILES: CCS(=O)(=O)Nc1ccc2c(c1)/C(=C/c1ccc[nH]1)C(=O)N2

IC50 [1]: > 1 nM
SMILES: CCC(=O)Nc1ccc2c(c1)/C(=C/c1ccc[nH]1)C(=O)N2

IC50 [1]: > 1 nM
SMILES: C=CC(=O)Nc1ccc2c(c1)/C(=C/c1ccc[nH]1)C(=O)N2

IC50 [1]: > 1 nM
SMILES: CCC(=O)Nc1ccc(Nc2nccc(Nc3cc(C4CC4)[nH]n3)n2)cc1

SMILES: C=CS(=O)(=O)Nc1ccc2c(c1)/C(=C/c1[nH]c(C)c(C(=O)NCCNC(=O)COc3ccc(C4=C5C(C)=C(CC)C(C)=[N+]5[B-](F)(F)n5c(C)c(CC)c(C)c54)cc3)c1C)C(=O)N2
Drug uptake [7]: Active
Activity [4]: Active
inhibition [5]: 89%
Activity [6]: Active

inhibition [12]: 12%
inhibition [13]: -6%
SMILES: O=C1Nc2ccccc2/C1=C/c1ccc[nH]1

IC50 [1]: 72 nM
SMILES: O=C(CCl)Nc1ccc2c(c1)/C(=C/c1ccc[nH]1)C(=O)N2

IC50 [9]: 298 nM
IC50 [1]: 58 nM
IC50 [10]: 514 nM
SMILES: C=CS(=O)(=O)Nc1ccc(Nc2nccc(Nc3cc(C4CC4)[nH]n3)n2)cc1

SMILES: CC(=O)Nc1ccc2c(c1)/C(=C/c1ccc[nH]1)C(=O)N2
Activity [3]: Non-Toxic
IC50 [1]: > 1 nM

— ChEMBL document CHEMBL4400537, “Virtual Screening Identifies Irreversible FMS-like Tyrosine Kinase 3 Inhibitors with Activity toward Resistance-Conferring Mutations” (J Med Chem, 2019)
